A word on the IC50: it is the concentration that inhibits the measured activity by half.

Data on 20 molecules can be found in patent US20250230140A1 (Viva Star Biosciences (Suzhou) Co., Ltd., priority 2021, published 2025).

For the test, the target named is T1, LPA1 (Homo sapiens, UniProt Q92633).
T1 construct: ProLink (β-galactosidase enzyme-donor fragment); host or cells: CHO-K1 (PathHunter EDG2 β-Arrestin cell line)
Put plainly: LPA1 calcium flux assay (LPA1 functional antagonist assay). Type of test: cell-based. The settings on record: PathHunter CHO-K1 EDG2 β-Arrestin cells, calcium indicator dye, stimulated with EC80 concentration of LPA, FLIPR. As for the experimental part:
The effectiveness of compounds of the present invention as LPA1 inhibitors can be determined in an LPA1 functional antagonist assay as follows.
PathHunter® CHO-K1 EDG2 β-Arrestin Cell Line (Eurofins DiscoverX Corporation, Cat #93-0644C2) were plated overnight (11,500 cells/well) in poly-D-lysine coated 384-well microplates (Corning, Cat #356697) in AssayComplete™ Cell Plating 35 Reagent (Eurofins DiscoverX Corporation, Cat #93-0563R35). Following overnight culture, cells were loaded with calcium indicator dye from the HitHunter Calcium No WashPLUS Assay kit (Eurofins DiscoverX Corporation, Cat #93-0091) for 45 minutes at 37° C. Test compounds solubilized in DMSO (Sigma, Cat #276855) on 384-well polypropylene microplates (Greiner bio-one, Cat #781280) were then diluted to intermediate concentration with assay buffer [1×HBSS calcium/magnesium (Corning, Cat #21-023-CM) and 20 mM HEPES (Corning, Cat #25-060-Cl)] before addition to cells by Agilent Velocity 11 with a final concentration of 0.4% DMSO. After compound addition, assay plates were equilibrated to room temperature for 30 minutes. Cells were then stimulated by addition of EC80 concentration of LPA (Cat #, 10010093) in assay buffer containing [1×HBSS calcium/magnesium (Corning, Cat #21-023-CM), 20 mM HEPES (Corning, Cat #25-060-Cl), and 0.1% BSA (Sigma, Cat #A8806)] using Molecular Devices FLIPR Tetra PLUS®. IC50 values were determined by Chemical and Biological Information System from ChemInnovation Software, Inc.
The compounds of this invention were tested for their activity to inhibit LPA1 as determined in an LPA1 functional antagonist assay as described herein.
(In general: A change in cytosolic calcium serves as a functional read-out for many receptors and channels.)

T1 sequence (Q92633 whole entry, the tested form may be a part): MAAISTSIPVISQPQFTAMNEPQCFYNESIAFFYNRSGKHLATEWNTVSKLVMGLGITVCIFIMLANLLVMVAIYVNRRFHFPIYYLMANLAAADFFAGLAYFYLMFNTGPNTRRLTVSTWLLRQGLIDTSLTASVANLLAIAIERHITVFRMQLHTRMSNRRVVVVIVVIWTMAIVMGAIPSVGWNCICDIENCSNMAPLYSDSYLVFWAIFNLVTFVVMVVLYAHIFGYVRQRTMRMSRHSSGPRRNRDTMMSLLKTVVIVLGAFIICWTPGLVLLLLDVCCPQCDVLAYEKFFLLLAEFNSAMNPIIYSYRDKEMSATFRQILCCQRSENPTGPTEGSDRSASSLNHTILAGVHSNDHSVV

For `CCc1nc(-c2nnn(C)c2Cn2cc(CC3CC3)ccc2=O)ccc1O[C@H]1CCC[C@H](C(=O)O)C1` [Example 44, (1S,3S)-3-((6-(5-((5-(cyclopropylmethyl)-2-oxopyridin-1(2H)-yl)methyl)-1-methyl-1H-1,2,3-triazol-4-yl)-2-ethylpyridin-3-yl)oxy)cyclohexanecarboxylic acid], the IC50 was less than 0.1 µM.
Under `CCc1nc(-c2nnn(C)c2COc2nccc(C3CCC3)n2)ccc1N1CC[C@H](CC(=O)O)C1` [Example 4, (R)-2-(1-(6-(5-(((4-cyclobutylpyrimidin-2-yl)oxy)methyl)-1-methyl-1H-1,2,3-triazol-4-yl)-2-ethylpyridin-3-yl)pyrrolidin-3-yl)acetic acid] stands 0.1 to 0.5 µM; under `Cc1nc(-c2nnn(C)c2COc2nccc(C3CCC3)n2)ccc1N1CCC(CC(=O)O)C1` (centres unmarked) [Example 3, 2-(1-(6-(5-(((4-cyclobutylpyrimidin-2-yl)oxy)methyl)-1-methyl-1H-1,2,3-triazol-4-yl)-2-methylpyridin-3-yl)pyrrolidin-3-yl)acetic acid], less than 0.1 µM; under `Cc1nc(-c2nnn(C)c2COc2nccc(C3CCC3)n2)ccc1C1COCC(CC(=O)O)C1` (centres unmarked) [Example 28, 2-{5-[6-(5-{[(4-cyclobutylpyrimidin-2-yl)oxy]methyl}-1-methyl-1H-1,2,3-triazol-4-yl)-2-methylpyridin-3-yl]oxan-3-yl}acetic acid], 0.1 to 0.5 µM.
Regarding `CCCN(C)C(=O)OCc1c(-c2ccc([C@@H]3CCC[C@@H](CC(=O)O)O3)c(CC)n2)nnn1C` (single isomer, unassigned) [Example 25, 2-((2S,6S) or (2R,6R)-6-(2-ethyl-6-(1-methyl-5-(((methyl(propyl)carbamoyl)oxy)methyl)-1H-1,2,3-triazol-4-yl)pyridin-3-yl)tetrahydro-2H-pyran-2-yl)acetic acid], the IC50 was in the range of 0.5 to 5 µM.
The value for `CCc1nc(-c2nnn(C)c2COc2nccc(C3CCC3)n2)ccc1[C@H]1CCC[C@H](CC(=O)O)O1` (single isomer, unassigned) [Example 23, 2-((2R,6R) or (2S,6S)-6-(6-(5-(((4-cyclobutylpyrimidin-2-yl)oxy)methyl)-1-methyl-1H-1,2,3-triazol-4-yl)-2-ethylpyridin-3-yl)tetrahydro-2H-pyran-2-yl)acetic acid] was 0.1 to 0.5 µM; that for `CCCc1ccc(=O)n(Cc2c(-c3ccc(C4CCOC(CC(=O)O)C4)c(CC)n3)nnn2C)c1` (centres unmarked) [Example 31, 2-(4-(2-ethyl-6-(1-methyl-5-((2-oxo-5-propylpyridin-1(2H)-yl)methyl)-1H-1,2,3-triazol-4-yl)pyridin-3-yl)tetrahydro-2H-pyran-2-yl)acetic acid] was 0.5 to 5 µM; that for `CCCc1ccc(=O)n(Cc2c(-c3ccc([C@@H]4CCC[C@@H](CC(=O)O)O4)c(CC)n3)nnn2C)c1` (single isomer, unassigned) [Example 24, 2-((2S,6S) or (2R,6R)-6-(2-ethyl-6-(1-methyl-5-((2-oxo-5-propylpyridin-1(2H)-yl)methyl)-1H-1,2,3-triazol-4-yl)pyridin-3-yl)tetrahydro-2H-pyran-2-yl)acetic acid] was 0.5 to 5 µM.
In the case of `CCc1nc(-c2nnn(C)c2COc2nccc(C3CCC3)n2)ccc1N1CC[C@@H]([C@H](C)C(=O)O)C1` [Example 10], the IC50 is less than 0.1 µM.
Under `CCCc1ccc(=O)n(Cc2c(-c3ccc(N4CC[C@@H](C(C)(C)C(=O)O)C4)c(C)n3)nnn2C)c1` [Example 15, (S)-2-methyl-2-(1-(2-methyl-6-(1-methyl-5-((2-oxo-5-propylpyridin-1(2H)-yl)methyl)-1H-1,2,3-triazol-4-yl)pyridin-3-yl)pyrrolidin-3-yl)propanoic acid] stands less than 0.1 µM; under `CCCc1ccc(=O)n(Cc2c(-c3ccc(N4CC[C@@H](C(C)(C)C(=O)O)C4)c(CC)n3)nnn2C)c1` [Example 14], less than 0.1 µM.
Under `CCCc1ccc(=O)n(Cc2c(-c3ccc(N4CC[C@@H]([C@H](C)C(=O)O)C4)c(CC)n3)nnn2C)c1` [Example 13, (S)-2-((S)-1-(2-ethyl-6-(1-methyl-5-((2-oxo-5-propylpyridin-1(2H)-yl)methyl)-1H-1,2,3-triazol-4-yl)pyridin-3-yl)pyrrolidin-3-yl)propanoic acid] stands 0.1 to 0.5 µM; under `CCCN(C)C(=O)OCc1c(-c2ccc(N3CC[C@@H](C(CC)C(=O)O)C3)c(CC)n2)nnn1C` (single isomer, unassigned) [Example 19, (S) or (R)-2-((S)-1-(2-ethyl-6-(1-methyl-5-(((methyl(propyl)carbamoyl)oxy)methyl)-1H-1,2,3-triazol-4-yl)pyridin-3-yl)pyrrolidin-3-yl)butanoic acid], 5 to 10000 µM; under `CCCc1ccc(=O)n(Cc2c(-c3ccc(N4CC[C@@H]([C@@H](C)C(=O)O)C4)c(CC)n3)nnn2C)c1` [Example 12, (R)-2-((S)-1-(2-ethyl-6-(1-methyl-5-((2-oxo-5-propylpyridin-1(2H)-yl)methyl)-1H-1,2,3-triazol-4-yl)pyridin-3-yl)pyrrolidin-3-yl)propanoic acid], 0.5 to 5 µM.
Under `CCc1nc(-c2nnn(C)c2COc2nccc(C3CCC3)n2)ccc1[C@@H]1CCC[C@@H](CC(=O)O)O1` (single isomer, unassigned) [Example 22, 2-((2S,6S) or (2R,6R)-6-(6-(5-(((4-cyclobutylpyrimidin-2-yl)oxy)methyl)-1-methyl-1H-1,2,3-triazol-4-yl)-2-ethylpyridin-3-yl)tetrahydro-2H-pyran-2-yl)acetic acid] stands less than 0.1 µM.
Consider `Cc1nc(-c2nnn(C)c2COc2nccc(C3CCC3)n2)ccc1N1CC[C@@H](CC(=O)O)C1` [Example 6, (S)-2-(1-(6-(5-(((4-cyclobutylpyrimidin-2-yl)oxy)methyl)-1-methyl-1H-1,2,3-triazol-4-yl)-2-methylpyridin-3-yl)pyrrolidin-3-yl)acetic acid], for which the IC50 is less than 0.1 µM.
As to `CCc1nc(-c2nnn(C)c2COc2nccc(C3CCC3)n2)ccc1C1CCOC(CC(=O)O)C1` (centres unmarked) [Example 32, 2-(4-(6-(5-(((4-cyclobutylpyrimidin-2-yl)oxy)methyl)-1-methyl-1H-1,2,3-triazol-4-yl)-2-ethylpyridin-3-yl)tetrahydro-2H-pyran-2-yl)acetic acid], the IC50 is less than 0.1 µM.
Under `CCc1nc(-c2nnn(C)c2COc2nccc(C3CCC3)n2)ccc1N1CC[C@H]([C@H](C)C(=O)O)C1` [Example 11] stands less than 0.1 µM; under `Cc1nc(-c2nnn(C)c2COc2cc(-n3cccn3)ncn2)ccc1N1CC[C@H](CC(=O)O)C1` [Example 7, (R)-2-(1-(6-(5-(((6-(1H-pyrazol-1-yl)pyrimidin-4-yl)oxy)methyl)-1-methyl-1H-1,2,3-triazol-4-yl)-2-methylpyridin-3-yl)pyrrolidin-3-yl)acetic acid], 0.1 to 0.5 µM.
Under `CCc1nc(-c2nnn(C)c2COc2nccc(C3CCC3)n2)ccc1C1CCOC(CC(=O)O)C1` (single isomer, unassigned) [Example 34, 2-(4-(6-(5-(((4-cyclobutylpyrimidin-2-yl)oxy)methyl)-1-methyl-1H-1,2,3-triazol-4-yl)-2-ethylpyridin-3-yl)tetrahydro-2H-223,423-pyran-2-yl)acetic acid] stands less than 0.1 µM.
